Numbered stars: 1 amine (or outer) side, 2 acyl side, 3 side chain; on linkers, the order of the positions; unused ones are H or OH. Square brackets hold non-standard residues; d marks the D form. Peptide text beside a SMILES is read from it. * marks the point of attachment. X2 = O=C(OCc1ccccc1)N1CCN([*:1])[C@H](C(=O)[*:2])C1; d1Nal = N[C@H](Cc1cccc2ccccc12)C(=O)O; d2Nal = N[C@H](Cc1ccc2ccccc2c1)C(=O)O; dHis(π-Me) = Cn1cncc1C[C@@H](N)C(=O)O; d(aIle) = CC[C@H](C)[C@@H](N)C(=O)O; X12 = O=C([C@@H]1CCCNN1[*:1])[*:2]; Hyp = O=C(O)[C@@H]1C[C@@H](O)CN1; Pip(4-aza) = O=C(O)[C@@H]1CNCCN1; X6 = O=C([C@H]1CCCNN1[*:1])[*:2]; dNMeF = CN[C@H](Cc1ccccc1)C(=O)O; dPip(4-aza) = O=C(O)[C@H]1CNCCN1; dCha = N[C@H](CC1CCCCC1)C(=O)O; dChg = N[C@@H](C(=O)O)C1CCCCC1; dPhg = N[C@@H](C(=O)O)c1ccccc1; Chg = N[C@H](C(=O)O)C1CCCCC1; Phg = N[C@H](C(=O)O)c1ccccc1; Pip = O=C(O)[C@@H]1CCCCN1; dPip = O=C(O)[C@H]1CCCCN1; NMeA = CN[C@@H](C)C(=O)O; dNMeA = CN[C@H](C)C(=O)O; Bn = c1ccc(C*)cc1; Acm = CC(=O)NC*
molecular target: T1, uterine OT receptors (Rattus norvegicus, UniProt P70536); test: [^3 H]OT binding to uterine OT receptors, crude membrane preparation of uteri from DES-treated rats; details: 1 h; @ 10 (nM); read-out: [^3 H]OT: percent inhibition of radioligand at the given concentration
T1 construct: from tissue; host or cells: uterus of DES-treated rats, crude membranes
T1 sequence (P70536 1-388): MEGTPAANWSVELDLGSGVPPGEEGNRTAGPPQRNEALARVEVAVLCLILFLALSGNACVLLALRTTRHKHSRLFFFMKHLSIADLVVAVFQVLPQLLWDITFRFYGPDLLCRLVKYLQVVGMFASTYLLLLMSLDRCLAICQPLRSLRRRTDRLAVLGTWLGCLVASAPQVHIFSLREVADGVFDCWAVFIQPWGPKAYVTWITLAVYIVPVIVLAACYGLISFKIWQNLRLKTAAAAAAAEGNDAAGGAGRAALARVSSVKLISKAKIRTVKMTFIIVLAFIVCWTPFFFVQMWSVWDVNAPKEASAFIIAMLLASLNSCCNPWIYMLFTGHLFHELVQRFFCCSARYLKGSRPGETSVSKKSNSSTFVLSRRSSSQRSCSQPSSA
Experimental: Competition studies were conducted at equilibrium (60 minutes; 22° C.) using 1 nM [^3 H]OT in the following assay buffer: 50 mM Tris-HCl, 5 mM MgCl2, and 0.1% BSA, pH 7.4.

| inhibition at 0.01 µM [%] | Compound |
| --- | --- |
| 39 | CC[C@H](C)[C@@H]1NC(=O)[C@@H](Cc2cccc3ccccc23)NC(=O)[C@@H]2CCCN2C(=O)[C@@H](Cc2c[nH]cn2)NC(=O)[C@@H]2CCCCN2C(=O)[C@H]2CCCCN2C1=O [Example 11, Cyclo[D-a-naphthalalanyl-L-isoleucyl-D-pipecolyl-L-pipecolyl-D-histidyl-L-prolyl]] (cyclo(I[dPip][Pip][dH]P[d1Nal])) |

same assay, conditions: 1 h; @ 1,000 (nM); read-out: [^3 H]OT: percent inhibition of radioligand at the given concentration

| inhibition at 1 µM [%] | Compound |
| --- | --- |
| 77 | CC[C@H](C)[C@@H]1NC(=O)[C@@H](Cc2ccccc2)NC(=O)[C@@H]2CCCN2C(=O)[C@@H](Cc2cncn2C)NC(=O)[C@@H]2CNCCN2C(=O)[C@H]2CCCCN2C1=O [Example 178, c-[D-Phenylalany-L-isoleucinyl-D-pipecolyl-L-piperazin-2-yl-D-(N^immethyl)histidinyl-L-prolyl]] (cyclo(I[dPip][Pip(4-aza)][dHis(π-Me)]P[dF])) |
| 49 | CC[C@H](C)[C@@H]1NC(=O)[C@@H](Cc2ccccc2)NC(=O)[C@@H]2CCCN2C(=O)[C@@H](Cc2ccccc2)NC(=O)[C@@H]2CN(C(=O)OCc3ccccc3)CCN2C(=O)[C@H]2CCCN2C1=O [Example 163, c-[D-Phenylalanyl-L-isoleucinyl-D-prolyl-L-piperazin-2-yl(4-Cbz)-D-phenylalanyl-L-prolyl]] (cyclo([dF]I[dP][X2][dF]P)) |

same assay, conditions: rat uterus membranes, 1 nM [^3 H]OT; read-out: Receptor Binding Results IC50 (nM) [^3 H]OT

| IC50 [nM] | Compound |
| --- | --- |
| > 10000 | CC[C@H](C)[C@@H]1NC(=O)[C@@H](Cc2ccccc2)NC(=O)[C@@H]2CCCN2C(=O)[C@@H](Cc2ccccc2)NC(=O)[C@H](c2ccccc2)NC(=O)[C@@H](c2ccccc2)NC1=O [Example 70, c-[D-Phenylalanyl-L-isoleucyl-D-phenylglycinyl-L-phenylglycinyl-D-phenylalanyl-L-prolyl]] (cyclo(I[dPhg][Phg][dF]P[dF])) |
| > 10000 | CC[C@@H](C)[C@H]1NC(=O)[C@H](Cc2ccccc2)NC(=O)[C@H]2CCCN2C(=O)[C@H](Cc2ccccc2)NC(=O)[C@H]2CCCN2C(=O)[C@@H]2CCCN2C1=O [Example 60, c-[L-Phenylalanyl-D-isoleucyl-L-prolyl-D-prolyl-L-phenylalanyl-D-prolyl]] (cyclo(F[dI]P[dP]F[dP])) |
| > 10000 | CC[C@H](C)[C@@H]1NC(=O)[C@@H](Cc2ccccc2)NC(=O)CNC(=O)[C@@H](CCC(N)=O)NC(=O)[C@@H]2CCCN2C(=O)[C@H]2CCCN2C1=O [Example 57] (cyclo([dF]I[dP]P[dQ]G)) |
| 3000 | CC[C@H](C)[C@@H]1NC(=O)[C@@H](Cc2ccccc2)NC(=O)[C@@H]2CCCN2C(=O)[C@@H](Cc2ccccc2)NC(=O)[C@H](C)N(C)C(=O)[C@@H](C)N(C)C1=O [Example 54, c-[D-Phenylalanyl-L-isoleucyl-N-methyl-D-alanyl-N-methyl-L-alanyl-D-phenylalanyl-L-prolyl]] (cyclo(I[dNMeA][NMeA][dF]P[dF])) |
| > 10000 | CCOc1ccc(C[C@H]2NC(=O)[C@@H]3CCCN3C(=O)[C@@H](Cc3ccccc3)NC(=O)[C@H](CC(N)=O)NC(=O)[C@@H](CCC(N)=O)NC(=O)[C@@H]([C@@H](C)CC)NC2=O)cc1 [Example 101] (cyclo(N[dF]P[dY](Et)[d(aIle)][dQ])) |
| > 10000 | CC[C@H](C)[C@@H]1NC(=O)[C@@H](Cc2ccc(O)cc2)NC(=O)[C@@H]2CCCN2C(=O)[C@@H](Cc2ccccc2)NC(=O)[C@@H]2CCCNN2C(=O)[C@H]2CCCNN2C1=O [Example 97] (cyclo([dY]I[X6][X12][dF]P)) |
| > 10000 | CC[C@H](C)[C@@H]1NC(=O)[C@@H](Cc2ccccc2)NC(=O)[C@@H]2CCCN2C(=O)[C@@H](CSCNC(C)=O)NC(=O)[C@@H]2CCCN2C(=O)[C@H]2CCCN2C1=O [Example 58, c-[D-Phenylalanyl-L-isoleucyl-D-prolyl-L-prolyl-D-cysteinyl(Acm)-L-prolyl]] (cyclo([dC](Acm)P[dF]I[dP]P)) |
| > 10000 | CC[C@H](C)[C@@H]1NC(=O)[C@@H](Cc2ccccc2)NC(=O)[C@@H]2CCCN2C(=O)[C@@H]([C@H](C)OCc2ccccc2)NC(=O)[C@@H]2CCCN2C(=O)[C@H]2CCCN2C1=O [Example 61, c-[D-Phenylalanyl-L-isoleucyl-D-prolyl-L-prolyl-D-threoninyl(Bzl)-L-prolyl]] (cyclo([dT](Bn)P[dF]I[dP]P)) |
| > 10000 | CC[C@H](C)[C@@H]1NC(=O)[C@@H](Cc2ccccc2)NC(=O)[C@@H]2CCCN2C(=O)[C@@H](CCC(N)=O)NC(=O)[C@@H]2CCCN2C(=O)[C@H]2CCCN2C1=O [Example 68, c-[D-Phenylalanyl-L-isoleucyl-D-prolyl-L-prolyl-D-α-glutaminyl-L-prolyl]] (cyclo([dF]I[dP]P[dQ]P)) |
| 6.7 | CC[C@H](C)[C@@H]1NC(=O)[C@@H](Cc2ccc3ccccc3c2)NC(=O)[C@@H]2CCCN2C(=O)[C@@H](Cc2c[nH]cn2)NC(=O)[C@H]2CNCCN2C(=O)[C@H]2CCCCN2C1=O [Example 161, c-[D-2-Naphthylalanyl-L-isoleucyl-D-pipecolyl-D-piperazin-2-yl-D-histidyl-L-prolyl]] (cyclo(I[dPip][dPip(4-aza)][dH]P[d2Nal])) |
| 3400 | CC[C@H](C)[C@@H]1NC(=O)[C@@H](Cc2ccccc2)NC(=O)[C@@H]2CCCN2C(=O)[C@@H](Cc2ccccc2)N(C)C(=O)[C@@H]2CCCN2C(=O)[C@H]2CCCN2C1=O [Example 52, c-[D-Phenylalanyl-L-isoleucyl-D-prolyl-L-prolyl-N-methyl-D-phenylalanyl-L-prolyl]] (cyclo([dNMeF]P[dF]I[dP]P)) |
| > 10000 | O=C1N[C@H](Cc2ccccc2)C(=O)N2CCC[C@H]2C(=O)N[C@H](Cc2ccccc2)C(=O)N2CCC[C@H]2C(=O)N2CCC[C@@H]2C(=O)N2CCC[C@@H]12 [Example 64, c-[D-Phenylalanyl-L-prolyl-D-prolyl-L-prolyl-D-phenylalanyl-L-prolyl]] (cyclo([dF]P[dF]P[dP]P)) |
| > 10000 | O=C1N[C@@H](c2ccccc2)C(=O)N2CCC[C@@H]2C(=O)N2CCC[C@H]2C(=O)N[C@H](Cc2ccccc2)C(=O)N2CCC[C@H]2C(=O)N[C@@H]1Cc1ccccc1 [Example 63, c-[D-Phenylalanyl-L-phenylglycyl-D-prolyl-L-prolyl-D-phenylalanyl-L-prolyl]] (cyclo([dF]P[dF][Phg][dP]P)) |
| > 10000 | C[C@@H](OCc1ccccc1)[C@@H]1NC(=O)[C@@H](Cc2ccccc2)NC(=O)[C@@H]2CCCN2C(=O)[C@@H](Cc2ccccc2)NC(=O)[C@@H]2CCCN2C(=O)[C@H]2CCCN2C1=O [Example 72, c-[D-Phenylalanyl-L-(O-benzyl)-threoninyl-D-prolyl-L-prolyl-D-phenylalanyl-L-prolyl]] (cyclo([dF]P[dF]T(Bn)[dP]P)) |
| > 10000 | CC[C@H](C)[C@@H]1NC(=O)[C@@H](Cc2ccccc2)NC(=O)[C@@H]2CCCN2C(=O)[C@@H](Cc2ccccc2)NC(=O)[C@H](C)NC(=O)[C@@H](C)NC1=O [Example 51, c-[D-Phenylalanyl-L-isoleucyl-D-alanyl-L-alanyl-D-phenylalanyl-L-prolyl]] (cyclo(A[dF]P[dF]I[dA])) |
| 2600 | CC[C@H](C)[C@@H]1NC(=O)[C@@H](Cc2ccccc2)NC(=O)[C@@H]2CCCN2C(=O)[C@@H](Cc2ccccc2)NC(=O)[C@@H]2CCCN2C(=O)[C@H]2CCCN2C1=O [Example 53, c-[D-Phenylalanyl-L-isoleucyl-D-prolyl-L-prolyl-D-phenylalanyl-L-prolyl]] (cyclo([dF]P[dF]I[dP]P)) |
| > 1000 | CC[C@H](C)[C@@H]1NC(=O)[C@@H](Cc2ccccc2)NC(=O)[C@@H]2CCCN2C(=O)[C@@H]([C@H](C)O)NC(=O)[C@@H]2CCCN2C(=O)[C@H]2CCCN2C1=O [Example 62, c-[D-Phenylalanyl-L-isoleucyl-D-prolyl-L-prolyl-D-threoninyl-L-prolyl]] (cyclo([dT]P[dF]I[dP]P)) |
| 2500 | CC[C@H](C)[C@@H]1NC(=O)[C@@H](CC2CCCCC2)NC(=O)[C@@H]2CCCN2C(=O)[C@@H](Cc2ccccc2)NC(=O)[C@@H]2CCCN2C(=O)[C@H]2CCCN2C1=O [Example 55] (cyclo([dCha]I[dP]P[dF]P)) |
| > 10000 | C[C@@H](O)[C@@H]1NC(=O)[C@@H](Cc2ccccc2)NC(=O)[C@@H]2CCCN2C(=O)[C@@H](Cc2ccccc2)NC(=O)[C@@H]2CCCN2C(=O)[C@H]2CCCN2C1=O [Example 73, c-[D-Phenylalanyl-L-threoninyl-D-prolyl-L-prolyl-D-phenylalanyl-L-prolyl]] (cyclo([dF]P[dF]T[dP]P)) |
| > 1000 | CC[C@H](C)[C@@H]1NC(=O)[C@@H](Cc2ccccc2)NC(=O)[C@@H]2CCCN2C(=O)[C@@H](CSCc2ccccc2)NC(=O)[C@@H]2CCCN2C(=O)[C@H]2CCCN2C1=O [Example 59, c-[D-Phenylalanyl-L-isoleucyl-D-prolyl-L-prolyl-D-crsteinyl(Bzl)-L-prolyl]] (cyclo([dC](Bn)P[dF]I[dP]P)) |
| > 10000 | CC[C@H](C)[C@@H]1NC(=O)[C@@H](Cc2ccccc2)NC(=O)[C@@H]2CCCN2C(=O)[C@@H](Cc2ccccc2)NC(=O)[C@@H]2C[C@@H](O)CN2C(=O)[C@H]2CCCN2C1=O [Example 71, c-[D-Phenylalanyl-L-isoleucyl-D-prolyl-L-trans-hydroxyprolyl-D-phenylalanyl-L-prolyl]] (cyclo([Hyp][dF]P[dF]I[dP])) |
| > 10000 | CC[C@H](C)[C@@H]1NC(=O)[C@@H](Cc2ccccc2)NC(=O)[C@@H]2CCCN2C(=O)[C@@H](Cc2ccccc2)NC(=O)[C@H](C2CCCCC2)NC(=O)[C@@H](C2CCCCC2)NC1=O [Example 65] (cyclo([Chg][dF]P[dF]I[dChg])) |
